Results on 21 molecules are retold here after patent US7132456B2, “MCH receptor antagonists” (Eli Lilly and Company, priority 2002, dated 2006).

Structures can show the parent of a compound that is named as a salt. Where two headings read alike, the source gives them in different places.

The target in one series is T1, human MCHR1 (Homo sapiens, UniProt Q99705).
T1 construct: The full-length cDNA for human MCHR1 was cloned; expressed in transfected cells; host or cells: AV12 cells previously transfected with Gα15
T1 sequence (Q99705 whole entry): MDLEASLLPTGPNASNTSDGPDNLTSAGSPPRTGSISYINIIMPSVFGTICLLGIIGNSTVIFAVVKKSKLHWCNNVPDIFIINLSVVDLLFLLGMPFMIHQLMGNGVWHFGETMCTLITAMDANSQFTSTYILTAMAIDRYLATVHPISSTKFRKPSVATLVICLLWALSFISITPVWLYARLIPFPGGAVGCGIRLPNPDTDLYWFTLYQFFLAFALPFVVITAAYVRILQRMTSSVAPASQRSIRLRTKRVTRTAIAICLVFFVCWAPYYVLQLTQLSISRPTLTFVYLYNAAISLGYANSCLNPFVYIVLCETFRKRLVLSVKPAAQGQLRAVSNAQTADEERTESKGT
The series can be described thus: 125I-MCH competitive binding assay on clone 43 membranes (MCHR1 binding). The conditions noted are these: competitive binding vs 100 pM 125I-MCH, clone 43 membranes (AV12 cells expressing MCHR1), Ki from IC50 by Cheng-Prusoff, tested in duplicate, read-out: MCHr Binding Ki. The protocol: The full-length cDNA for human MCHR1 was cloned from a human adult brain cDNA library (Edge Biosystems, Cat. 38356) by standard polymerase chain reaction (PCR) methodology employing the following primers: sense, 5′-GCCACCATGGACCT GGAAGCCTCGCTGC-3′; anti-sense, 5′-[…]-3′. The PCR reaction was performed in a final volume of 50 μL containing 5 μL of a 10× stock solution of PCR buffer, 1 μL of 10 mM dNTP mixture (200 μM final), 2 μL of 50 mM Mg(SO4) (2 mM final), 0.5 μL of 20 μM solutions of each primer (0.2 μM final), 5 μL of template cDNA containing 0.5 ng DNA, 0.5 μL of Platinum Taq High Fidelity DNA polymerase (Gibco Life Technologies) and 36 μL of H2O. PCR amplification was performed on a Perkin Elmer 9600 thermocycler. After denaturation for 90 sec at 94° C., the amplification sequence consisting of 94° C. for 25 sec, 55° C. for 25 sec and 72° C. for 2 min was repeated 30 times, followed by a final elongation step at 72° C. for 10 min. The desired PCR product (1.1 Kb) was confirmed by agarose gel electrophoresis and the band was extracted from the gel by Geneclean (Bio101) following the manufacturer's instructions. Following extraction, the cDNA fragment was cloned into pCR2.1-TOPO plasmid (Invitrogen) to confirm the identity and sequence.
In order to generate cell lines stably expressing MCHR1, the insert was then subcloned into the Xba I and Not I sites of pcDNA(+)-3.1-neomycin (Invitrogen). After purification by Qiagen Maxi-prep kit (QIAGEN, Inc.), the plasmid was transfected by Fugene 6 (Roche Applied Science) into AV12 cells that had been previously transfected with the promiscuous G protein Gα15. The transfected cells were selected by G418 (800 μg/mL) for 10–14 days and single colonies were isolated from culture plates. The G418-resistant colonies were further selected for MCHR1 expression by measuring MCH-stimulated Ca^2+ transients with a fluorometric imaging plate reader (FLIPR, Molecular Devices).
Both the ^125I-MCH binding and functional GTPγ^35S binding assays employed membranes isolated from a clone designated as clone 43. Typically, cells from 20 confluent T225 flasks were processed by washing the monolayers in cold phosphate-buffered saline (PBS), scraping the cells into same and re-suspending the cell pellet in 35 mL of 250 mM Sucrose, 50 mM HEPES, pH 7.5, 1 mM MgCl2, 24 μg/mL DNase I, and protease inhibitors (1 Complete® tablet, per 50 ml of buffer prepared, Roche Diagnostics). After incubation on ice for 5 min, cells were disrupted with 20–25 strokes of a Teflon/Glass homogenizer attached to an overhead motorized stirrer, and the homogenate was centrifuged at 40,000 rpm in Beckman Type 70.1 Ti rotor. The pellets were re-suspended in 250 mM Sucrose, 50 mM HEPES, pH 7.5, 1.5 mM CaCl2, 1 mM MgSO4 and protease inhibitors by Teflon/Glass homogenization to achieve a protein concentration of ˜3–5 mg/ml (Pierce BCA assay with Bovine serum albumin as standard). Aliquots were stored at −70° C.
Binding of compounds to MCHR1 was assessed in a competitive binding assay employing ^125I-MCH, compound and clone 43 membranes. Briefly, assays are carried out in 96-well Costar 3632 white opaque plates in a total volume of 200 μl containing 25 mM HEPES, pH 7.5, 10 mM CaCl2, 2 mg/ml bovine serum albumin, 0.5% dimethyl sulfoxide (DMSO), 4 μg of clone 43 membranes, 100 pM ^125I-MCH (NEN), 1.0 mg of wheat germ agglutinin scintillation proximity assay beads (WGA-SPA beads, Amersham) and a graded dose of test compound. Non-specific binding is assessed in the presence of 1 μM unlabeled MCH. Bound ^125I-MCH is determined by placing sealed plates in a Microbeta Trilux (Wallac) and counting after a 5 hr delay.
IC50 values (defined as the concentration of test compound required to reduce specific binding of ^125I-MCH by 50%) are determined by fitting the concentration-response data to a 4-parameter model (max response, min response, Hill coefficient, IC50) using Excel. […]

What is called melting point is the temperature, or range, at which the solid turns liquid. As for `CN(C)CCCNC(=O)c1ccc(-c2ccc(CSCCOc3ccccc3)cc2)cc1` (as salt: hydrochloride), the melting point lay within 112 to 115 °C.

The molecule `CN(C)CCNC(=O)c1ccccc1-c1ccc(CSCCOc2ccccc2)cc1.O=C(O)C(=O)O` displayed a melting point of 109 to 113 °C.

Usually Ki stands for the dissociation constant of the complex between target and ligand, obtained from inhibition or displacement. As to `CN(C)CCNC(=O)c1ccc(-c2cccc(CSCCOc3ccccc3)c2)cc1` [Example 14, 3′-(2-phenoxy-ethylsulfanylmethyl)-biphenyl-4-carboxylic acid (2-dimethylamino-ethyl)-amide], the melting point fell in the range of 75 to 78 °C. Besides, the inhibitory constant (Ki) on human MCHR1 worked out at 1.47 µM.

`CN(C)CCCCNC(=O)c1cccc(-c2ccc(CSCCOc3ccccc3)cc2)c1.O=C(O)C(=O)O` [Example 3, 4′-(2-phenoxy-ethylsulfanylmethyl)-biphenyl-3-carboxylic acid (4-dimethylamino-butyl)-amide oxalate] registered a melting point of 144 to 147 °C. The inhibition constant Ki on human MCHR1 was 10.7 µM.

In the case of `CN(C)CCNC(=O)c1cccc(-c2ccccc2CSCCOc2ccccc2)c1.O=C(O)C(=O)O` [Example 20, 2′-(2-phenoxy-ethylsulfanylmethyl)-biphenyl-3-carboxylic acid (2-dimethylamino-ethyl)-amide oxalate], the melting point lay in the range of 96 to 100 °C. The inhibition constant Ki on human MCHR1 is 11.4 µM.

For the molecule `CN(C)CCCNC(=O)c1cccc(-c2ccc(CSCCOc3ccccc3)cc2)c1.O=C(O)C(=O)O` [Example 1, 4′-(2-phenoxy-ethylsulfanylmethyl)-biphenyl-3-carboxylic acid(3-dimethylamino-propyl)-amide oxalate], the melting point fell in the range of 132 to 133.5 °C. Moreover, the Ki on human MCHR1 stood at 5.04 µM.

As to `CN(C)CCNC(=O)c1ccccc1-c1cccc(CSCCOc2ccccc2)c1.Cl`, the melting point was 150 to 153 °C.

`CN(C)CCCNC(=O)c1ccc(-c2cccc(CSCCOc3ccccc3)c2)cc1.O=C(O)C(=O)O` [Example 15, 3′-(2-phenoxy-ethylsulfanylmethyl)-biphenyl4-carboxylic acid (3-dimethylamino-propyl)-amide oxalate] gave a melting point of 133 to 137 °C. Further, the Ki on human MCHR1 came out at 1.95 µM.

Regarding `CN(C)CCCCNC(=O)c1ccc(-c2cccc(CSCCOc3ccccc3)c2)cc1.O=C(O)C(=O)O` [Example 16, 3′-(2-phenoxy-ethylsulfanylmethyl)-biphenyl4-carboxylic acid (4-dimethylamino-butyl)-amide oxalate], the melting point was 85 to 89 °C. For the same molecule, on human MCHR1, the Ki worked out at 8.96 µM.

Molecule `CN(C)CCNC(=O)c1ccc(-c2ccccc2CSCCOc2ccccc2)cc1` [Example 23, 2′-(2-phenoxy-ethylsulfanylmethyl)-biphenyl4-carboxylic acid (2-dimethylamino-ethyl)-amide] returned a melting point of 93 to 96 °C. Moreover, at human MCHR1, the Ki worked out at 7.2 µM.

Regarding `CN(C)CCCNC(=O)c1ccc(-c2ccccc2CSCCOc2ccccc2)cc1` [Example 24, 2′-(2-phenoxy-ethylsulfanylmethyl)-biphenyl4-carboxylic acid (3-dimethylamino-propyl)-amide], the melting point lay within 98 to 100 °C. Besides, the Ki on human MCHR1 was 6.13 µM.

Molecule `CN(C)CCCNC(=O)c1cccc(-c2ccccc2CSCCOc2ccccc2)c1.O=C(O)C(=O)O` [Example 21, 2′-(2-phenoxy-ethylsulfanylmethyl)-biphenyl-3-carboxylic acid (3-dimethylamino-propyl)-amide oxalate] came in with a melting point of 97 to 100 °C. For the same molecule, the inhibition constant Ki on human MCHR1 is 8.55 µM.

In turn, `CN(C)CCCCNC(=O)c1ccccc1-c1ccccc1CSCCOc1ccccc1.O=C(O)C(=O)O` registered a melting point of 64 to 70 °C.

On to “2′-(2-phenoxy-ethylsulfanylmethyl)-biphenyl-3-carboxylic acid (4-dimethylamino-butyl)-amide oxalate [Example 22]”, for which, at human MCHR1, the Ki turned out to be 10.8 µM.

`CN(C)CCCCNC(=O)c1ccc(-c2ccc(CSCCOc3ccccc3)cc2)cc1.O=C(O)C(=O)O` [Example 6, 4′-(2-phenoxy-ethylsulfanylmethyl)-biphenyl-4-carboxylic acid (4-dimethylamino-butyl)-amide oxalate] showed a melting point of 142 to 147 °C. Besides, the Ki on human MCHR1 stood at 10.1 µM.

As to “4′-(2-phenoxy-ethylsulfanylmethyl)-biphenyl-4-carboxylic acid (2-dimethylamino-ethyl)-amide oxalate [Example 4]”, on human MCHR1 (oxalate), the Ki came to 11.7 µM.

`CN(C)CCCNC(=O)c1cccc(-c2cccc(CSCCOc3ccccc3)c2)c1.O=C(O)C(=O)O` [Example 13, 3′-(2-phenoxy-ethylsulfanylmethyl)-biphenyl-3-carboxylic acid (3-dimethylamino-propyl)-amide oxalate] yielded a melting point of 51 to 53 °C. Besides, the Ki at human MCHR1 is 8.76 µM.

In turn, `CN(C)CCNC(=O)c1ccccc1-c1ccccc1CSCCOc1ccccc1.O=C(O)C(=O)O` yielded a melting point of 46 to 50 °C.

The molecule `CN(C)CCNC(=O)c1cccc(-c2ccc(CSCCOc3ccccc3)cc2)c1.O=C(O)C(=O)O` [Example 2, 4′-(2-phenoxy-ethylsulfanylmethyl)-biphenyl-3-carboxylic acid (2-dimethylamino-ethyl)-amide oxalate] showed a melting point of 88 to 93 °C. Also, the Ki at human MCHR1 was found to be 7.52 µM.

As to `CN(C)CCCCNC(=O)c1ccc(-c2ccccc2CSCCOc2ccccc2)cc1` [Example 25, 2′-(2-phenoxy-ethylsulfanylmethyl)-biphenyl4-carboxylic acid (4-dimethylamino-butyl)-amide], the Ki on human MCHR1 came out at 6.89 µM.

Consider `CN(C)CCCCNC(=O)c1ccccc1-c1ccc(CSCCOc2ccccc2)cc1.O=C(O)C(=O)O` [Example 9, 4′-(2-phenoxy-ethylsulfanylmethyl)-biphenyl-2-carboxylic acid (4-dimethylamino-butyl)-amide oxalate], for which the melting point fell in the range of 72 to 76 °C. The Ki on human MCHR1 amounted to 16.3 µM.
